In patent US11046694B2, “Compounds and methods for treating bacterial infections” (Entasis Therapeutics, Inc., priority 2018, dated 2021):
Converted amounts (≈) assume the structure as drawn. Structures can show the parent of a compound that is named as a salt. Where two headings read alike, the source gives them in different places.

Columns and labels:
P. aeruginosa PBP3 = P. aeruginosa PBP3 (Pseudomonas aeruginosa, UniProt G3XD46); type: biochemical; conditions: P. aeruginosa PBP3 60 nM, BOCILLIN FL 30 nM, pH 7.0
P. aeruginosa WT (PAO1) = test: MIC, CLSI broth microdilution, P. aeruginosa; type: cell-based; conditions: Pseudomonas aeruginosa
A. baumannii (ARC3495) = test: MIC against A. baumannii; conditions: Acinetobacter baumannii, read-out: A. baumannii MIC (ARC3495) (mg/L)
[1] = tested on: K. pneumoniae (ATCC700603); test: MIC against K. pneumoniae; conditions: Klebsiella pneumoniae, ATCC700603, read-out: K. pneumoniae MIC (ATCC700603)
E. coli (ATCC25922) = test: MIC against E. coli; conditions: Escherichia coli, ATCC25922, read-out: E. coli MIC (ATCC25922) (mg/L)
P. aeruginosa PBP1a = P. aeruginosa PBP1a (Pseudomonas aeruginosa, UniProt Q07806); type: biochemical; conditions: P. aeruginosa PBP1a 60 nM, BOCILLIN FL 30 nM, pH 7.0
[2] = PAO1, CLSI broth microdilution, read-out: P. aeruginosa WT (PAO1) MIC

Chain of P. aeruginosa PBP1a (Q07806 whole entry): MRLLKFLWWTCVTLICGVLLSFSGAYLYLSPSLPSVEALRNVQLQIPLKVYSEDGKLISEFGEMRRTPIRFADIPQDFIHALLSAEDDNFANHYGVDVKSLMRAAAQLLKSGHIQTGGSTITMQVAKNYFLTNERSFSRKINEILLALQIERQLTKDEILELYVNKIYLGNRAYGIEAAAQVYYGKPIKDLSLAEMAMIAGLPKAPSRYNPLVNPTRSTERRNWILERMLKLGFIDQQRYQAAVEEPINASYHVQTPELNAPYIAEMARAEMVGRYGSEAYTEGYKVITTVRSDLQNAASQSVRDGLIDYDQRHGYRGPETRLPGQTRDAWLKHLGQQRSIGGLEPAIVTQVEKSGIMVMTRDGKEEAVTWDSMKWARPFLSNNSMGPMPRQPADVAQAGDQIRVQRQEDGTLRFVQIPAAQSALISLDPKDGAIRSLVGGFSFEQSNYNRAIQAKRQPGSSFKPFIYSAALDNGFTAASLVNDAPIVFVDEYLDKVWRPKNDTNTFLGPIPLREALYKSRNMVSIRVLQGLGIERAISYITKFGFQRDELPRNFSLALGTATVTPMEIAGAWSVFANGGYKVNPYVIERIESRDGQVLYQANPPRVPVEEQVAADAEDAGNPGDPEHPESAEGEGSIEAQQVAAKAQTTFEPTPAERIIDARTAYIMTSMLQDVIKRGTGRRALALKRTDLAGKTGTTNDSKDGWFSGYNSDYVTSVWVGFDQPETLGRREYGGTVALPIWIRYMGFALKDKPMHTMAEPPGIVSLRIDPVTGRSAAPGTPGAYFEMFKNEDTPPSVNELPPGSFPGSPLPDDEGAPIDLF
Chain of P. aeruginosa PBP3 (G3XD46 whole entry): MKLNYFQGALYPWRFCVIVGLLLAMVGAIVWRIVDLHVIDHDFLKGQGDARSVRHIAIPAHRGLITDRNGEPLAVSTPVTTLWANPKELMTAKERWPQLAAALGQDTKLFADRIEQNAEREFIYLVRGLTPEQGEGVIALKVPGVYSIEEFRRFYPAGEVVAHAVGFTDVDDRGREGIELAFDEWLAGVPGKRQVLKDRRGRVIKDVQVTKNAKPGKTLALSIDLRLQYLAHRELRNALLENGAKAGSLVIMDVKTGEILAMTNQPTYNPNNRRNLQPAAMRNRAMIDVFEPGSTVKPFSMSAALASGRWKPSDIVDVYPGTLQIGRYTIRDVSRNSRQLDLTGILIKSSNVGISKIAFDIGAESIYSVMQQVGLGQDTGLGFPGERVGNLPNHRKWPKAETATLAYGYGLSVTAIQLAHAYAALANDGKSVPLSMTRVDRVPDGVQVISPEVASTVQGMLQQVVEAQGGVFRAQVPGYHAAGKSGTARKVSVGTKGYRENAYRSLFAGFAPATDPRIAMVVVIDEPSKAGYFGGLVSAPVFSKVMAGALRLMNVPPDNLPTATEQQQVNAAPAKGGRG

Structure (SMILES) | PBP3 acylation rate, k(on) (M^−1 · s^−1) (P. aeruginosa PBP3) | MIC (P. aeruginosa WT (PAO1); [2]) [mg/L] | MIC (A. baumannii (ARC3495)) [mg/L] | MIC [1] [µg/mL] | MIC (E. coli (ATCC25922)) [mg/L] | PBP1a acylation rate, k(on) (M^−1 · s^−1) (P. aeruginosa PBP1a) | MIC (P. aeruginosa WT (PAO1); PAO1, read-out: P. aeruginosa WT (PAO1) MIC (mg/L)) [mg/L]
CN/C(=N\OC(=O)NCc1cnn(C)c1)[C@@H]1c2c(cnn2C)[C@@H]2CN1C(=O)N2OS(=O)(=O)O (racemic) [Example 15, (4R,8S)-1-methyl-8-((Z)—N-methyl-N′-((((1-methyl-1H-pyrazol-4-yl)methyl)carbamoyl)oxy)carbamimidoyl)-6-oxo-4,8-dihydro-1H-4,7-methanopyrazolo[3,4-e][1,3]diazepin-5(6H)-yl hydrogen sulfate] | *** (*** represents a k(on) > 10,000 M^−1 · s^−1) | > 16 | > 16 | > 16 | < 8 | ** (** represents a k(on) of 100 to 10,000 M^−1 · s^−1) | 
CN/C(=N\OC(=O)NCCC(N)=O)[C@@H]1c2c(cnn2C)[C@@H]2CN1C(=O)N2OS(=O)(=O)O (racemic) [Example 16] | *** (*** represents a k(on) > 10,000 M^−1 · s^−1) | 8 to 16 (≈ 17.4 to 34.8 µM) | > 16 | > 16 | 8 to 16 (≈ 17.4 to 34.8 µM) | ** (** represents a k(on) of 100 to 10,000 M^−1 · s^−1) | 
CN/C(=N\OC(=O)NO)[C@@H]1c2c(cnn2C)[C@@H]2CN1C(=O)N2OS(=O)(=O)O (racemic) [Example 17] | *** (*** represents a k(on) > 10,000 M^−1 · s^−1) | 8 to 16 (≈ 19.7 to 39.5 µM) | > 16 | 8 to 16 (≈ 19.7 to 39.5 µM) | 8 to 16 (≈ 19.7 to 39.5 µM) | ** (** represents a k(on) of 100 to 10,000 M^−1 · s^−1) | 
CN/C(=N\OC(=O)NCCN)[C@@H]1c2c(cnn2C)[C@@H]2CN1C(=O)N2OS(=O)(=O)O (racemic) [Example 18, (4R,8S)-8-((Z)—N′-(((2-aminoethyl)carbamoyl)oxy)-N-methylcarbamimidoyl)-1-methyl-6-oxo-4,8-dihydro-1H-4,7-methanopyrazolo[3,4-e][1,3]diazepin-5(6H)-yl hydrogen sulfate] | *** (*** represents a k(on) > 10,000 M^−1 · s^−1) | < 8 | 8 to 16 | 8 to 16 | < 8 | ** (** represents a k(on) of 100 to 10,000 M^−1 · s^−1) | 
CN/C(=N\OC(=O)NCCCCN)[C@@H]1c2c(cnn2C)[C@@H]2CN1C(=O)N2OS(=O)(=O)O (racemic) [Example 19] | *** (*** represents a k(on) > 10,000 M^−1 · s^−1) | < 8 | 8 to 16 (≈ 17.4 to 34.7 µM) | > 16 | 8 to 16 (≈ 17.4 to 34.7 µM) | ** (** represents a k(on) of 100 to 10,000 M^−1 · s^−1) | 
CNC(=O)O/N=C(\NC)[C@@H]1c2c(cnn2C)[C@@H]2CN1C(=O)N2OS(=O)(=O)O (racemic) [Example 20] | *** (*** represents a k(on) > 10,000 M^−1 · s^−1) |  | 8 to 16 (≈ 19.8 to 39.7 µM) | > 16 | 8 to 16 (≈ 19.8 to 39.7 µM) | ** (** represents a k(on) of 100 to 10,000 M^−1 · s^−1) | 8 to 16 (≈ 19.8 to 39.7 µM)
CN/C(=N\OC(=O)N(C)C)[C@@H]1c2c(cnn2C)[C@@H]2CN1C(=O)N2OS(=O)(=O)O (racemic) [Example 21] | *** (*** represents a k(on) > 10,000 M^−1 · s^−1) | > 16 | > 16 | > 16 | < 8 | ** (** represents a k(on) of 100 to 10,000 M^−1 · s^−1) | 
CN/C(=N\OC(=O)NCC(=O)O)[C@@H]1c2c(cnn2C)[C@@H]2CN1C(=O)N2OS(=O)(=O)O (racemic) [Example 22] | *** (*** represents a k(on) > 10,000 M^−1 · s^−1) | 8 to 16 (≈ 17.9 to 35.8 µM) | > 16 | 8 to 16 (≈ 17.9 to 35.8 µM) | < 8 | ** (** represents a k(on) of 100 to 10,000 M^−1 · s^−1) | 
CN/C(=N\OC(=O)NCC(N)=O)[C@@H]1c2c(cnn2C)[C@@H]2CN1C(=O)N2OS(=O)(=O)O (racemic) [Example 23] | *** (*** represents a k(on) > 10,000 M^−1 · s^−1) | 8 to 16 (≈ 17.9 to 35.8 µM) | > 16 | 8 to 16 (≈ 17.9 to 35.8 µM) | 8 to 16 (≈ 17.9 to 35.8 µM) | ** (** represents a k(on) of 100 to 10,000 M^−1 · s^−1) | 
CN/C(=N\OC(=O)N[C@H]1CCNC1)[C@@H]1c2c(cnn2C)[C@@H]2CN1C(=O)N2OS(=O)(=O)O (racemic) [Example 24] | *** (*** represents a k(on) > 10,000 M^−1 · s^−1) | < 8 | 8 to 16 (≈ 17.4 to 34.9 µM) | 8 to 16 (≈ 17.4 to 34.9 µM) | 8 to 16 (≈ 17.4 to 34.9 µM) | ** (** represents a k(on) of 100 to 10,000 M^−1 · s^−1) | 
CN/C(=N\OC(=O)NCCCN)[C@@H]1c2c(cnn2C)[C@@H]2CN1C(=O)N2OS(=O)(=O)O (racemic) [Example 25] | *** (*** represents a k(on) > 10,000 M^−1 · s^−1) | < 8 | 8 to 16 (≈ 17.9 to 35.8 µM) | > 16 | 8 to 16 (≈ 17.9 to 35.8 µM) | ** (** represents a k(on) of 100 to 10,000 M^−1 · s^−1) | 
CN/C(=N\OC(=O)NC1CNC1)[C@@H]1c2c(cnn2C)[C@@H]2CN1C(=O)N2OS(=O)(=O)O (racemic) [Example 26] | *** (*** represents a k(on) > 10,000 M^−1 · s^−1) | < 8 | < 8 | < 8 | < 8 | ** (** represents a k(on) of 100 to 10,000 M^−1 · s^−1) | 
CN/C(=N\OC(=O)NCCC(=O)O)[C@@H]1c2c(cnn2C)[C@@H]2CN1C(=O)N2OS(=O)(=O)O (racemic) [Example 27] | *** (*** represents a k(on) > 10,000 M^−1 · s^−1) | 8 to 16 (≈ 17.3 to 34.7 µM) | > 16 | > 16 | < 8 | ** (** represents a k(on) of 100 to 10,000 M^−1 · s^−1) | 
CN/C(=N\OC(=O)NCC1CCNCC1)[C@@H]1c2c(cnn2C)[C@@H]2CN1C(=O)N2OS(=O)(=O)O (racemic) [Example 28] | *** (*** represents a k(on) > 10,000 M^−1 · s^−1) | < 8 | 8 to 16 (≈ 16.4 to 32.9 µM) | > 16 | < 8 | ** (** represents a k(on) of 100 to 10,000 M^−1 · s^−1) | 
CN/C(=N\OC(=O)NC1CCNCC1)[C@@H]1c2c(cnn2C)[C@@H]2CN1C(=O)N2OS(=O)(=O)O (racemic) [Example 29] | *** (*** represents a k(on) > 10,000 M^−1 · s^−1) | < 8 | 8 to 16 (≈ 16.9 to 33.9 µM) | > 16 | 8 to 16 (≈ 16.9 to 33.9 µM) | ** (** represents a k(on) of 100 to 10,000 M^−1 · s^−1) | 
CN/C(=N\OC(=O)N[C@H]1CC[C@H](N)CC1)[C@@H]1c2c(cnn2C)[C@@H]2CN1C(=O)N2OS(=O)(=O)O (racemic) [Example 30] | *** (*** represents a k(on) > 10,000 M^−1 · s^−1) | < 8 | 8 to 16 (≈ 16.4 to 32.9 µM) | > 16 | 8 to 16 (≈ 16.4 to 32.9 µM) | ** (** represents a k(on) of 100 to 10,000 M^−1 · s^−1) | 
CN/C(=N\OC(=O)NCCCC[C@H](N)C(=O)O)[C@@H]1c2c(cnn2C)[C@@H]2CN1C(=O)N2OS(=O)(=O)O (racemic) [Example 31] | *** (*** represents a k(on) > 10,000 M^−1 · s^−1) | 8 to 16 (≈ 15.4 to 30.9 µM) | > 16 | > 16 | < 8 | ** (** represents a k(on) of 100 to 10,000 M^−1 · s^−1) | 
CN/C(=N\OC(=O)NCCCC[C@H](N)C(=O)OC(C)(C)C)[C@@H]1c2c(cnn2C)[C@@H]2CN1C(=O)N2OS(=O)(=O)O (racemic) [Example 32] | *** (*** represents a k(on) > 10,000 M^−1 · s^−1) | > 16 | > 16 | > 16 | < 8 | ** (** represents a k(on) of 100 to 10,000 M^−1 · s^−1) | 
